From patent US12012637B2 (University of South Florida, priority 2017, dated 2024)

Experiments:
LIN28B [1] = assay: Dual immunofluorescence staining of LIN28B and GLUT1 in IH sections from propranolol-treated patients; format: in vivo, human
Experimental: Paraffin embedded infantile hemangioma and placenta sections (10 μm) were immunostained with primary antibodies against LIN28B 40 ug/ml (Abcam Cat #ab71415, RRID:AB_2135050) and GLUT1 3.4 ug/ml (Abcam Cat #ab40084, RRID:AB_2190927) overnight at 4° C. Sections were washed 3 times in PBS and incubated with 4 ug/ml secondary antibody Alexa Fluor 488 (Life Technologies Cat #a21202, RRID:AB_141607) for GLUT1 and alexa fluor cy3 (Life Technologies Cat #a10520, RRID:AB_2534029) for LIN28B for 30 minutes at room temperature. The sections were then washed with PBS and mounted with ProLong Diamond Antifade Mountant with DAPI, (Invitogen). Confocal images were obtained using an Olympus FV 1200 instrument. Immunofluorescence intensities were measured using ImageJ software as described^33. Fluorescence intensities were normalized to background intensities of secondary antibody only controls.

LIN28B [2] = assay: Immunoblot of LIN28B in propranolol-treated iPSCs; format: cell-based, human; conditions: 50 μM, 72 h, vs vehicle control
Experimental: (§1) Briefly, freshly dissected IH tissues were digested in 0.2% collagenase A (Roche Diagnostics, Indianapolis, IN). […] HemSCs were maintained in EBM-2 SingleQuot media Supplemented with 20% FBS.
Immunoblot analyses were performed as previously described^34 using 24 ng/ml antibodies against GAPDH (Cell Signaling Technology Cat #2118L RRID:AB_561053), […] antibodies against LIN28B (Abcam Cat #ab71415 RRID:AB_2135050) followed by IRDye 680 donkey anti-rabbit IGG secondary antibodies (0.2 μg/ml, LI-COR, 926-68073 RRID: AB_10954442). Immunoblots were imaged using the Odyssey Infrared Imaging System (LI-COR) and quantified using Image Studio software (LI-COR).

iPSCs [3] = assay: qRT-PCR analysis of miRNAs and genes in propranolol-treated iPSCs; format: cell-based, human; conditions: 50 μM
iPSCs [4] = assay: mRNA sequencing (RNAseq) and gene set enrichment analysis of propranolol-treated iPSCs; format: cell-based, human; conditions: 50 μM
Experimental: as §1
The cDNA library preparation was completed by second strand synthesis using SuperScript III, alkaline RNA hydrolysis, and PCR amplification for 10 cycles. mRNA libraries were prepared by utilizing the Illumina TruSeq Stranded mRNA LT protocol using 500 ng total RNA and NEB's Protoscript II reverse transcriptase for the first-strand cDNA synthesis according to the manufacturer's protocol. Individual RNAseq libraries were quality controlled on an Agilent TapeStation with a High Sensitivity D1000 ScreenTape. […] The libraries were sequenced on an Illumina NextSeq 500 sequencer 75-bp paired-end in mid-output mode in the Genomics Core Facility of The Rockefeller University.
The miRNA read annotation for sRNAseq experiments was performed as previously described^36, 37 using an slightly updated, manually curated miRNA reference based on previous work 38. […] The RNAseq data was aligned to the Human Genome Build 38 using the STAR aligner^40 (version 2.0.4j) allowing for two mismatches.
All data were tested for normality.

iPSCs [5] = assay: WST1 proliferation assay; format: cell-based, human; conditions: 50 μM, 72 hours
Experimental: iPSCs were grown in 6 well plates and split 1:10 at 3-day intervals. […] WST1 proliferation assays were performed as previously described^29.

iPSCs [6] = assay: Bright field morphology of propranolol-treated iPSCs; format: cell-based, human; conditions: 50 μM, 72 h, compared to control
mir-498(46) = conditions: previous work (ref. 7); cited from earlier work
hemangioma stem cells = conditions: cited from earlier work
iPSCs [7] = assay: sRNAseq analysis of miRNA cistrons in propranolol-treated iPSCs
[8] = iPSCs, 50 μM, 72 h, vs vehicle control

CC(C)NCC(O)COc1cccc2ccccc12 (centres unmarked) [Propranolol]
LIN28B and GLUT1 immunostaining (LIN28B [1]; propranolol-treated proliferative IH compared to untreated proliferative IH): markedly decreased | LIN28B to GLUT1 immunofluorescence signal intensity, increase in proliferative IH compared to propranolol treated IH (LIN28B [1]; untreated proliferative IH vs propranolol treated IH samples): ~2 fold | decrease in LIN28B protein levels (LIN28B [2]): 2.3 fold | SERPINE1 increased expression (qRT-PCR) (iPSCs [3]; 72 h): 8.4 fold | TWIST1 increased expression (qRT-PCR) (iPSCs [3]; 72 h): 5 fold | LIN28B mRNA levels (iPSCs [3]; 72 h, data not shown): no significant differences | increase in let-7a expression (qRT-PCR) (iPSCs [3]; 72 hr): > 1. 65 fold | miR-515-5p expression (qRT-PCR) (iPSCs [3]; 72 hr): significant reduction | miR-517a expression (qRT-PCR) (iPSCs [3]; 72 hr): significant reduction | miR-518C expression (qRT-PCR) (iPSCs [3]; 72 hr): significant reduction | miR-519d expression (qRT-PCR) (iPSCs [3]; 72 hr): significant reduction | SERPINE1 increase (RNAseq) (iPSCs [4]; 72 h): 12 fold | TWIST1 increase (RNAseq) (iPSCs [4]; 72 h): 2.9 fold | gene set analysis: TGF-β signaling pathway (iPSCs [4]; 72 h, FDR 0.06): upregulation | gene set analysis: adipogenesis pathway (iPSCs [4]; 72 h, FDR 0.09): upregulation | gene set analysis: E2F targets (iPSCs [4]; 72 h, FDR<0.25): downregulation | gene set analysis: G2M checkpoint (iPSCs [4]; 72 h, FDR<0.25): downregulation | gene set analysis: mitotic spindle pathway (iPSCs [4]; 72 h, FDR<0.25): downregulation | gene set enrichment: genes defining EMT (iPSCs [4]; 72 h vs control, FDR 0.00046): enrichment | decrease in cell proliferation (iPSCs [5]): 33% | EMT associated morphological changes (iPSCs [6]): more elongated cellular shape | levels of mir-498(46) in propranolol-treated IH tumors vs proliferative IH (mir-498(46)): significantly lower levels | adipogenesis in hemangioma stem cells (hemangioma stem cells): induce adipogenesis | downregulation of mir-498(46) (iPSCs [7]; [8]): 1.6 fold | increase in expression of cistron mir-98(13) (iPSCs [7]; [8]): 3.2 fold | Normalized frequency, cistron mir-10a(1) (iPSCs [7]; propranolol-treated iPSCs): 0.0168% | Normalized frequency, cistron mir-10b(1) (iPSCs [7]; propranolol-treated iPSCs): 0.0176% | Normalized frequency, cistron mir-21(1) (iPSCs [7]; propranolol-treated iPSCs): 10.5844% | Normalized frequency, cistron mir-33b(1) (iPSCs [7]; propranolol-treated iPSCs): 0.002% | Normalized frequency, cistron mir-98(13) (iPSCs [7]; propranolol-treated iPSCs): 0.2313% | Normalized frequency, cistron mir-188(8) (iPSCs [7]; propranolol-treated iPSCs): 0.1459% | Normalized frequency, cistron mir-488(1) (iPSCs [7]; propranolol-treated iPSCs): 0.0022% | Normalized frequency, cistron mir-498(46) (iPSCs [7]; propranolol-treated iPSCs): 0.4075% | Normalized frequency, cistron mir-1226(1) (iPSCs [7]; propranolol-treated iPSCs): 0% | Normalized frequency, cistron mir-3155(1) (iPSCs [7]; propranolol-treated iPSCs): 0.0014%
